# Assay results from PubChem BioAssay AID1963981 (Molecular Pharmacology Branch, DTP, NCI, 2024).
# Tested on: 354836-022-R-J1-PDC multicell spheroid viability
# Assay: Anticancer human tumor 354836-022-R-J1-PDC patient-derived head and neck squamous cell carcinoma cell line growth inhibition [PI3K]
# Conditions: for viability, T/C: stronger effect = lower value
# Summary of the method: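 Combination activity was assessed by viability in multicellular tumor spheroids carrying HUVEC and MSC components. Agents were tested with PI3K inhibitors from a Cmax-based top dose (or 10 microM) downward in half-log increments.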
# [1] = curve of first compound, second compound 0.00316 µM
# [2] = curve of first compound, second compound 0.01 µM
# [3] = curve of first compound, second compound 0.0316 µM
# [4] = curve of first compound, second compound 0.1 µM
# [5] = curve of first compound, second compound 0.316 µM
# [6] = curve of first compound, second compound 1 µM
# [7] = second compound 0.00316 µM, first compound 0.0316 µM
# [8] = second compound 0.00316 µM, first compound 0.1 µM
# [9] = second compound 0.00316 µM, first compound 0.316 µM
# [10] = second compound 0.00316 µM, first compound 1 µM
# [11] = second compound 0.01 µM, first compound 0.0316 µM
# [12] = second compound 0.01 µM, first compound 0.1 µM
# [13] = second compound 0.01 µM, first compound 0.316 µM
# [14] = second compound 0.01 µM, first compound 1 µM
# [15] = second compound 0.0316 µM, first compound 0.00316 µM
# [16] = second compound 0.0316 µM, first compound 0.01 µM
# [17] = second compound 0.0316 µM, first compound 0.0316 µM
# [18] = second compound 0.0316 µM, first compound 0.1 µM
# [19] = second compound 0.0316 µM, first compound 0.316 µM
# [20] = second compound 0.0316 µM, first compound 1 µM
# [21] = second compound 0.1 µM, first compound 0.00316 µM
# [22] = second compound 0.1 µM, first compound 0.01 µM
# [23] = second compound 0.1 µM, first compound 0.0316 µM
# [24] = second compound 0.1 µM, first compound 0.1 µM
# [25] = second compound 0.1 µM, first compound 0.316 µM
# [26] = second compound 0.1 µM, first compound 1 µM
# [27] = second compound 0.316 µM, first compound 0.00316 µM
# [28] = second compound 0.316 µM, first compound 0.01 µM
# [29] = second compound 0.316 µM, first compound 0.0316 µM
# [30] = second compound 0.316 µM, first compound 0.1 µM
# [31] = second compound 0.316 µM, first compound 0.316 µM
# [32] = second compound 0.316 µM, first compound 1 µM
# [33] = second compound 1 µM, first compound 0.00316 µM
# [34] = second compound 1 µM, first compound 0.01 µM
# [35] = second compound 1 µM, first compound 0.0316 µM
# [36] = second compound 1 µM, first compound 0.1 µM
# [37] = second compound 1 µM, first compound 0.316 µM
# [38] = second compound 1 µM, first compound 1 µM
# [39] = second compound 0.0316 µM, first compound 3.16 µM
# [40] = second compound 0.0316 µM, first compound 10 µM
# [41] = second compound 0.1 µM, first compound 3.16 µM
# [42] = second compound 0.1 µM, first compound 10 µM
# [43] = second compound 0.316 µM, first compound 3.16 µM
# [44] = second compound 0.316 µM, first compound 10 µM
# [45] = second compound 1 µM, first compound 3.16 µM
# [46] = second compound 1 µM, first compound 10 µM
# [47] = curve of first compound, second compound 3.16 µM
# [48] = curve of first compound, second compound 10 µM
# [49] = second compound 3.16 µM, first compound 0.0316 µM
# [50] = second compound 3.16 µM, first compound 0.1 µM
# [51] = second compound 3.16 µM, first compound 0.316 µM
# [52] = second compound 3.16 µM, first compound 1 µM
# [53] = second compound 10 µM, first compound 0.0316 µM
# [54] = second compound 10 µM, first compound 0.1 µM
# [55] = second compound 10 µM, first compound 0.316 µM
# [56] = second compound 10 µM, first compound 1 µM
# 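Also: spheroids exposed to agents for seven days before the viability read.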
structure (smiles),measurement,setting,value
Cn1cnc2c(F)c(Nc3ccc(Br)cc3Cl)c(C(=O)NOCCO)cc21,"viability, T/C",compound 0.00949 µM,90% [middle of 4 runs]
same,"viability, T/C",compound 0.03 µM,85.5% [middle of 4 runs]
same,"viability, T/C",compound 0.0949 µM,91.4% [middle of 4 runs]
same,"viability, T/C",compound 0.3 µM,74.8% [middle of 4 runs]
same,"viability, T/C",compound 0.949 µM,80.2% [middle of 4 runs]
same,"viability, T/C",compound 3 µM,58.4% [middle of 4 runs]
same,IC50,curve of compound,> 3000 nM
CCN1CCN(Cc2ccc(Nc3ncc(F)c(-c4cc(F)c5nc(C)n(C(C)C)c5c4)n3)nc2)CC1 + CC(Nc1ccc2c(c1)OCCn1cc(N3C(=O)OCC3C(F)F)nc1-2)C(N)=O,IC50,[1],> 1000 nM
same,IC50,[2],> 1000 nM
same,IC50,[3],> 1000 nM
same,IC50,[4],713 nM
same,IC50,[5],425 nM
same,IC50,[6],162 nM
same,"viability, T/C","second compound 0.00316 µM, first compound 0.00316 µM",99.9%
same,"viability, T/C","second compound 0.00316 µM, first compound 0.01 µM",99.6%
same,"viability, T/C",[7],93.1%
same,"viability, T/C",[8],105%
same,"viability, T/C",[9],104%
same,"viability, T/C",[10],67.5%
same,"viability, T/C","second compound 0.01 µM, first compound 0.00316 µM",100%
same,"viability, T/C","second compound 0.01 µM, first compound 0.01 µM",97.8%
same,"viability, T/C",[11],116%
same,"viability, T/C",[12],85%
same,"viability, T/C",[13],89.2%
same,"viability, T/C",[14],69.6%
same,"viability, T/C",[15],95.8%
same,"viability, T/C",[16],80.7%
same,"viability, T/C",[17],84.7%
same,"viability, T/C",[18],101%
same,"viability, T/C",[19],85.7%
same,"viability, T/C",[20],57.5%
same,"viability, T/C",[21],89.2%
same,"viability, T/C",[22],82.9%
same,"viability, T/C",[23],75.6%
same,"viability, T/C",[24],94.1%
same,"viability, T/C",[25],75.9%
same,"viability, T/C",[26],39.2%
same,"viability, T/C",[27],65%
same,"viability, T/C",[28],79.3%
same,"viability, T/C",[29],67.5%
same,"viability, T/C",[30],62.1%
same,"viability, T/C",[31],61.5%
same,"viability, T/C",[32],22.9%
same,"viability, T/C",[33],64%
same,"viability, T/C",[34],54.1%
same,"viability, T/C",[35],67.6%
same,"viability, T/C",[36],47.5%
same,"viability, T/C",[37],46.4%
same,"viability, T/C",[38],14.2%
CC1(C)CCC(Nc2ncc(C(F)(F)F)c(-c3c[nH]c4c(P(C)(C)=O)c(C#N)ccc34)n2)CN1 (stereo not given) + CC(Nc1ccc2c(c1)OCCn1cc(N3C(=O)OCC3C(F)F)nc1-2)C(N)=O,IC50,[1],< 31.6 nM
same,IC50,[2],< 31.6 nM
same,IC50,[3],< 31.6 nM
same,IC50,[4],< 31.6 nM
same,IC50,[5],< 31.6 nM
same,IC50,[6],< 31.6 nM
same,"viability, T/C",[7],21.5%
same,"viability, T/C",[8],18.9%
same,"viability, T/C",[9],21.4%
same,"viability, T/C",[10],22.9%
same,"viability, T/C","second compound 0.00316 µM, first compound 3.16 µM",32.5%
same,"viability, T/C","second compound 0.00316 µM, first compound 10 µM",2.76%
same,"viability, T/C",[11],28.1%
same,"viability, T/C",[12],18.5%
same,"viability, T/C",[13],27.8%
same,"viability, T/C",[14],25.4%
same,"viability, T/C","second compound 0.01 µM, first compound 3.16 µM",32.9%
same,"viability, T/C","second compound 0.01 µM, first compound 10 µM",2.41%
same,"viability, T/C",[17],16.7%
same,"viability, T/C",[18],21.1%
same,"viability, T/C",[19],16.9%
same,"viability, T/C",[20],19%
same,"viability, T/C",[39],23.6%
same,"viability, T/C",[40],1.33%
same,"viability, T/C",[23],18.6%
same,"viability, T/C",[24],15.8%
same,"viability, T/C",[25],22.1%
same,"viability, T/C",[26],16.2%
same,"viability, T/C",[41],22.3%
same,"viability, T/C",[42],1.47%
same,"viability, T/C",[29],12.8%
same,"viability, T/C",[30],15.8%
same,"viability, T/C",[31],14.7%
same,"viability, T/C",[32],19.9%
same,"viability, T/C",[43],18.3%
same,"viability, T/C",[44],1.99%
same,"viability, T/C",[35],14.1%
same,"viability, T/C",[36],13%
same,"viability, T/C",[37],14.1%
same,"viability, T/C",[38],16.6%
same,"viability, T/C",[45],19.3%
same,"viability, T/C",[46],1.51%
C=CC(=O)N1CCN(c2nc(=O)n(-c3c(C)ccnc3C(C)C)c3nc(-c4c(O)cccc4F)c(F)cc23)C(C)C1 (stereo not given),"viability, T/C",compound 0.0316 µM,114% [middle of 4 runs]
same,"viability, T/C",compound 0.1 µM,95.3% [middle of 4 runs]
same,"viability, T/C",compound 0.316 µM,99.3% [middle of 4 runs]
same,"viability, T/C",compound 10 µM,95.1% [middle of 4 runs]
same,IC50,curve of compound,> 10000 nM
CC1(C)CCC(Nc2ncc(C(F)(F)F)c(-c3c[nH]c4c(P(C)(C)=O)c(C#N)ccc34)n2)CN1 (stereo not given) + CC(Nc1ncnc2nc[nH]c12)c1cc2cccc(Cl)c2c(=O)n1-c1ccccc1,IC50,[3],< 31.6 nM
same,IC50,[4],< 31.6 nM
same,IC50,[5],< 31.6 nM
same,IC50,[6],< 31.6 nM
same,IC50,[47],< 31.6 nM
same,IC50,[48],< 31.6 nM
same,"viability, T/C",[17],13.4%
same,"viability, T/C",[18],10.9%
same,"viability, T/C",[19],15.2%
same,"viability, T/C",[20],12.4%
same,"viability, T/C",[39],13.8%
same,"viability, T/C",[40],1.65%
same,"viability, T/C",[23],12.6%
same,"viability, T/C",[24],13.2%
same,"viability, T/C",[25],15.7%
same,"viability, T/C",[26],16%
same,"viability, T/C",[41],16.1%
same,"viability, T/C",[42],2.44%
same,"viability, T/C",[29],11.3%
same,"viability, T/C",[30],13.9%
same,"viability, T/C",[31],12.4%
same,"viability, T/C",[32],14.8%
same,"viability, T/C",[43],14%
same,"viability, T/C",[44],2.31%
same,"viability, T/C",[35],12.3%
same,"viability, T/C",[36],13.2%
same,"viability, T/C",[37],14%
same,"viability, T/C",[38],14.3%
same,"viability, T/C",[45],16.8%
same,"viability, T/C",[46],1.85%
same,"viability, T/C",[49],10.7%
same,"viability, T/C",[50],13.8%
same,"viability, T/C",[51],13.7%
same,"viability, T/C",[52],15%
same,"viability, T/C","second compound 3.16 µM, first compound 3.16 µM",16%
same,"viability, T/C","second compound 3.16 µM, first compound 10 µM",1.2%
same,"viability, T/C",[53],17%
same,"viability, T/C",[54],16.9%
same,"viability, T/C",[55],14.9%
same,"viability, T/C",[56],21.3%
same,"viability, T/C","second compound 10 µM, first compound 3.16 µM",16.8%
same,"viability, T/C","second compound 10 µM, first compound 10 µM",0.91%
CCN1CCN(Cc2ccc(Nc3ncc(F)c(-c4cc(F)c5nc(C)n(C(C)C)c5c4)n3)nc2)CC1 + Cc1nc(NC(=O)N2CCCC2C(N)=O)sc1-c1ccnc(C(C)(C)C(F)(F)F)c1,IC50,[3],> 1000 nM
same,IC50,[4],> 1000 nM
same,IC50,[5],> 1000 nM
same,IC50,[6],455 nM
same,IC50,[47],322 nM
same,IC50,[48],< 3.16 nM
same,"viability, T/C",[15],107%
same,"viability, T/C",[16],82.5%
same,"viability, T/C",[17],97.9%
same,"viability, T/C",[18],90.9%
same,"viability, T/C",[19],99.7%
same,"viability, T/C",[20],62.8%
same,"viability, T/C",[21],94.4%
same,"viability, T/C",[22],82.5%
same,"viability, T/C",[23],91.5%
same,"viability, T/C",[24],77.7%
same,"viability, T/C",[25],91.8%
same,"viability, T/C",[26],69.1%
same,"viability, T/C",[27],87.6%
same,"viability, T/C",[28],96.4%
same,"viability, T/C",[29],69.5%
same,"viability, T/C",[30],92%
same,"viability, T/C",[31],84.2%
same,"viability, T/C",[32],51.1%
same,"viability, T/C",[33],67.9%
same,"viability, T/C",[34],90.8%
same,"viability, T/C",[35],63.2%
same,"viability, T/C",[36],67.8%
same,"viability, T/C",[37],59.5%
same,"viability, T/C",[38],33.3%
same,"viability, T/C","second compound 3.16 µM, first compound 0.00316 µM",51.9%
same,"viability, T/C","second compound 3.16 µM, first compound 0.01 µM",61.8%
same,"viability, T/C",[49],54.4%
same,"viability, T/C",[50],59.3%
same,"viability, T/C",[51],49.8%
same,"viability, T/C",[52],18.8%
same,"viability, T/C","second compound 10 µM, first compound 0.00316 µM",31.8%
same,"viability, T/C","second compound 10 µM, first compound 0.01 µM",36.6%
same,"viability, T/C",[53],35%
same,"viability, T/C",[54],28.9%
same,"viability, T/C",[55],25.2%
same,"viability, T/C",[56],9.14%
